Values quoted from earlier work, collected in patent publication US20250177336A1 (RX BANDZ, INC., priority 2023, published 2025).

Settings: zwitterionic form predominates

isoelectric point: ~7.3 pH
Structure (SMILES): NC[C@H]1CC[C@H](C(=O)O)CC1 [TXA, Tranexamic acid]
